Starred links: 1 amine or outer side, 2 acyl side, 3 side chain; linkers in the order of their positions; H or OH if unused. Non-standard residues stand in square brackets, D forms with d. Residues, ends and D or L forms follow the SMILES beside them. Groups on a side chain read outwards from the residue. *: point of attachment. C18 diacid = O=C(O)CCCCCCCCCCCCCCCCC(=O)*; γGlu = O=C(O)[C@H](CCC(=O)[*:2])N[*:1]; Aib = CC(C)(N)C(=O)O

The test system of one data set is Gcgr^Δliver mice. The data set is described as follows: Chronic study in hepatic-specific glucagon receptor knockout mice. The data set is classed as in vivo, mouse. Particulars: 5 nmol/kg s.c. daily, 14 days, n = 7-8/group. The method, then:
Age-matched (12-week-old) Gcgr^flox/flox:Alb-Cre + (Gcgr^Δliver) and Gcgr^flox/flox:Alb-Cre- (control) mice were subcutaneously administered daily with either 5 nmol/kg G108 or vehicle control (HPLC water) for 14 days (N = 7–8/group). All mice were single-housed and had ad libitum access to water and a standard (20 kcal%) protein diet (diet D11112201, Table S2). Food intake and body weight were measured daily prior to administration of peptide each day. EchoMRI analysis was carried out at baseline and day 14. Tail venesection was carried out 4-h post-dose on day 14. Blood samples were immediately transferred on ice, centrifuged at 2800 × g for 10 min prior to plasma total amino acid analysis.
Food intake was measured daily using a dedicated weighing scale and topped up accordingly. Body weight was recorded at 9 am daily or every 48 h using the same weighing scale. Body composition was measured using an EchoMRI analyser at various timepoints during chronic studies. […] Each scan lasted approximately 90 s where lean mass and fat mass were recorded in grams. […]
Plasma total amino acids were measured using fluorometric-based ELISA kits as described (MAK002, Sigma-Aldrich, Ab65347, Abcam). Plasma FGF21 was measured using a fluorescent based ELISA kit (ab229382, Abcam). Plasma triglyceride, cholesterol and leptin were measured using ELISA kits (ab65336, ab65390, ab199082, Abcam). […]

For data set [1], the system named is diet-induced obese (DIO) C57BL/6 mice. The data set is described as follows: Essential and non-essential amino acid supplementation in G108-treated DIO mice. Particulars: 7.5 nmol/kg daily, 14 days, n = 8/group. The class given is in vivo, mouse. From the text: Lean 10-week-old C57BL/6 mice (N = 48) were provided ad libitum with a 60 kcal% high fat diet (diet D12492, Table S2) for 8 weeks. They were then provided with either a high fat standard protein diet (SP) (D08091803), a high fat standard protein diet supplemented with essential amino acids (SP + EAA) (Formula 2, Table S3), or a high fat standard protein diet supplemented with non-essential amino acids (SP + NEAA) (Formula 3, Table S3), N = 16/group. Mice from each diet group received either 7.5 nmol/kg G108 or vehicle control resulting in the following six treatment groups, N = 8/group: Vehicle/SP, 7.5 nmol/kg G108/SP, Vehicle/SP +EAA, 7.5 nmol/kg G108/SP + EAA, Vehicle/SP + NEAA, 7.5 nmol/kg G108 + NEAA. Food intake and body weight was measured every 48 h. Prior to commencing their respective diets, baseline body composition analysis was (EchoMRI) was carried out in addition to body composition analysis on day 11. Tail venesection was carried out on day 13 of the study 4 h following respective treatments. […]
To measure energy expenditure, DIO mice were placed into a Comprehensive Laboratory Animal Monitoring System (CLAMS, Columbus instruments, Columbus, US). […] Food intake was also measured electronically without the need to remove food. […] Feed efficiency was calculated as mg body weight change per kJ consumed.

A short description of data set [2]: Pharmacokinetic profile of G108 in rats (plasma radioimmunoassay). Particulars: rat, in vivo, sc, male Wistar rats, single 0.5 mg subcutaneous dose, sampled 1.5-72 h, n = 4, read-out: time at which peak plasma concentrations were achieved. The method, then:
10-week-old male Wistar rats (N = 4) were administered with 0.5 mg G108 via 100 μL subcutaneous injection. Tail venesection was performed to collect 100 μL blood samples prior to injection and at 1.5, 3, 6, 24, 48 and 72 h after injection. Blood samples were immediately frozen on ice, centrifuged at 8000 × g for 10 min at 4°C, and the plasma supernatant collected. Samples were stored at −20°C.
An in-house radioimmunoassay was used to determine peptide concentrations in the rat plasma. Antiserum (RA553/3) was produced in rabbits against the purified glucagon (1–16) fragment which specifically cross-reacted with the N-terminal glucagon-like sequence of G108. Direct iodination was used to produce Iodine-125 glucagon which was purified by reverse phase high pressure liquid chromatography. The assay was performed in a total volume of 700 μL of 0.06 M phosphate EDTA buffer containing 0.3% BSA. All samples were assayed in duplicate and the standard curve was set using 5 pmol/mL G108 in assay buffer. The assay was incubated for 3 nights at 4°C prior to separation via charcoal into free and antibody-bound label. A γ-counter was used to count the pellet and supernatant and the ratio of free to bound label was calculated. The plasma peptide concentration was calculated using two phase exponential decay with respect to the relevant standard curve.

The test system of another data set is lean C57BL/6 mice. The data set is described as follows: Chronic low-dose (5 nmol/kg) G108 study in lean mice. The data set is classed as in vivo, mouse. Particulars: 5 nmol/kg s.c. daily. The method, then: For the low-dose G108 (5 nmol/kg) study, C57BL/6 mice matched for weight and age (14-week-old, N = 14) were single housed and split into two treatment groups (N = 7/group). All mice were subcutaneously administered with the allocated treatment daily at 9 am for 21 days. Mice were administered with vehicle control (HPLC water) or 5 nmol/kg G108 (diluted in sterile HPLC water). All mice had ad libitum access to a standard protein diet containing 20 kcal% protein (diet D11112201) (Table S2). Food intake and body weight were measured daily prior to treatment each day. EchoMRI analysis was carried out at baseline and days 7, 14 and 21. Tail venesection was carried out on day 7 of study, pre- and 4 h post treatment dose. Blood samples were immediately transferred on ice, centrifuged at 2800 × g for 10 min prior to plasma total amino acid analysis. Forelimb grip strength testing was performed at baseline, day 14 and day 21. On day 21, following a 4 h fast, mice were culled, and the following muscle groups dissected and weighed: quadriceps, gastrocnemius, soleus, tibialis anterior, extensor digitorum longus.
Food intake was measured daily using a dedicated weighing scale and topped up accordingly. Body weight was recorded at 9 am daily or every 48 h using the same weighing scale. Body composition was measured using an EchoMRI analyser at various timepoints during chronic studies. Body composition measurements were taken on the same time of day to reduce intra-animal variability. Animals were placed in a transparent cylindrical Perspex tube and both ends secured with Perspex clips. The tubes containing the animal was then carefully placed into the MRI machine (EchoMRI −100H analyser, EchoMRI). Each scan lasted approximately 90 s where lean mass and fat mass were recorded in grams. Following the scan, the mice were removed from the Perspex tube and returned to their respective cages.
A grip strength meter (Bioseb, France) was used to measure grip strength. […] The maximum force, measured in g was recorded. Four consecutive measurements were made with a 1 min rest interval. An average of measurements was taken for each timepoint prior to subsequent analysis.
Plasma total amino acids were measured using fluorometric-based ELISA kits as described (MAK002, Sigma-Aldrich, Ab65347, Abcam). Plasma FGF21 was measured using a fluorescent based ELISA kit (ab229382, Abcam). Plasma triglyceride, cholesterol and leptin were measured using ELISA kits (ab65336, ab65390, ab199082, Abcam). Individual amino acids were measured using Gas Chromatography/Mass Spectrometry (WellChild laboratory, Evelina Children’s Hospital, St Thomas’s Hospital, London).

For the compound `CC[C@H](C)[C@H](NC(=O)[C@H](Cc1ccccc1)NC(=O)[C@H](CCC(=O)O)NC(=O)[C@H](CCC(N)=O)NC(=O)[C@H](C)NC(=O)[C@H](CCCNC(=N)N)NC(=O)[C@H](CCCCN)NC(=O)[C@H](C)NC(=O)[C@H](CC(=O)O)NC(=O)[C@H](CC(C)C)NC(=O)[C@H](Cc1ccc(O)cc1)NC(=O)[C@H](CCCNC(=N)N)NC(=O)[C@H](CO)NC(=O)[C@H](Cc1ccc(O)cc1)NC(=O)[C@H](CC(=O)O)NC(=O)[C@H](CO)NC(=O)[C@@H](NC(=O)[C@H](Cc1ccccc1)NC(=O)[C@@H](NC(=O)CNC(=O)[C@H](Cc1c[nH]cn1)NC(=O)C(C)(C)NC(=O)[C@@H](N)Cc1c[nH]cn1)[C@@H](C)O)[C@@H](C)O)C(=O)N[C@@H](CCC(=O)O)C(=O)N[C@@H](Cc1c[nH]c2ccccc12)C(=O)N[C@@H](CC(C)C)C(=O)N[C@@H](CC(C)C)C(=O)N[C@@H](CCC(N)=O)C(=O)N[C@@H](CO)C(=O)N[C@@H](Cc1c[nH]cn1)C(=O)N[C@@H](Cc1c[nH]cn1)C(=O)N[C@@H](CCC(N)=O)C(=O)N[C@@H](Cc1c[nH]cn1)C(=O)N[C@@H](Cc1c[nH]cn1)C(=O)N1CCC[C@H]1C(=O)N[C@@H](CO)C(=O)N1CCC[C@H]1C(=O)N1CCC[C@H]1C(=O)N1CCC[C@H]1C(=O)N[C@@H](CCCCNC(=O)[C@H](CC(N)=O)NC(=O)CC[C@H](NC(=O)CCCCCCCCCCCCCCCCC(=O)O)C(=O)O)C(N)=O` [Peptide G108] (H-H[Aib]HGTFTSDYSRYLDAKRAQEFIEWLLQSHHQHHPSPPPK([Asn-γGlu-C18 diacid])-NH2; N-terminus and C-terminus assumed), the “effects on body weight, lean mass and plasma amino acids in mice lacking the hepatic GCGR” value in the data set on Gcgr^Δliver mice was “completely refractory”. Further, the “effects on weight loss and feed efficiency on SP diet supplemented with either EAAs or NEAAs” value in data set [1] is listed as “not suppressed”. Moreover, the Tmax in data set [2] was 24 h. In the data set on lean C57BL/6 mice (21 days, n = 7/group), the “body composition (lean mass, EchoMRI)” value is reported as “reduced lean mass” and the “body weight gain compared with vehicle” value is “prevented weight gain”. Also, the “plasma total amino acids” value in the data set with lean C57BL/6 mice (day 7, n = 7/group) was “sustained reduction in plasma amino acids”. Further, the “weight of the quadriceps and gastrocnemius muscles” value in the data set with lean C57BL/6 mice (day 21, n = 7/group) was “reduced”. Besides, in the data set on lean C57BL/6 mice (days 14 and 21, n = 7/group), the forelimb grip strength result is “reduced”.

(Values after publication PMC9729826, “Hypoaminoacidemia underpins glucagon-mediated energy expenditure and weight loss” (Cell Reports Medicine, 2022).)
